Laboratory results as given in BindingDB's records for doi:10.1186/1472-6769-1-3 (Kimmel Cancer Center, 2001).

Molecular target: Bis(5'-adenosyl)-triphosphatase (Homo sapiens, UniProt P49789)
Assay: Enzyme Inhibition Assay
From the text: Inhibition assay using Fhit with ApppBODIPY.

Chain of Bis(5'-adenosyl)-triphosphatase (P49789 whole entry): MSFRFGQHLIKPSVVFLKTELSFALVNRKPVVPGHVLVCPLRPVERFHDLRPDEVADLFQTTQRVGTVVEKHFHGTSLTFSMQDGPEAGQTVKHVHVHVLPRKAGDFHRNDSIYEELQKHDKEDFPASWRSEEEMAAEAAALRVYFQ

| Ki [µM] | SMILES |
| --- | --- |
| 2.6 | Nc1ncnc2c1ncn2C1OC(COP(=O)(S)OCCOP(O)(=S)OCC2OC(n3cnc4c(N)ncnc43)C(O)C2O)C(O)C1O (stereo unspecified) [AppppA analog, 2 (X=S)] |
| 86 | Nc1ncnc2c1ncn2C1OC(COP(=O)(S)OC(C(=O)O)C(OP(O)(=S)OCC2OC(n3cnc4c(N)ncnc43)C(O)C2O)C(=O)O)C(O)C1O (stereo unspecified) [AppppA analog, 3 (X=S)] |
| 86 | Nc1ncnc2c1ncn2C1OC(COP(=O)(S)OCC(O)C(O)COP(O)(=S)OCC2OC(n3cnc4c(N)ncnc43)C(O)C2O)C(O)C1O (stereo unspecified) [AppppA analog, 4 (X=S)] |
| 1.5 | Nc1ncnc2c1ncn2C1O[C@H](COP(=O)(O)OCP(O)(O)=COP(=O)(O)OCC2O[C@@H](n3cnc4c(N)ncnc43)[C@H](O)[C@@H]2O)[C@@H](O)[C@H]1O (stereo partly specified) [AppppA analog, 5 (X=O)] |
| 0.22 | Nc1ncnc2c1ncn2C1O[C@H](COP(O)(=S)OC=P(O)(O)COP(=O)(S)OCC2O[C@@H](n3cnc4c(N)ncnc43)[C@H](O)[C@@H]2O)[C@@H](O)[C@H]1O (stereo partly specified) [AppppA analog, 5 (X=S)] |
| 4.7 | Nc1ncnc2c1ncn2C1O[C@H](COP(=O)(O)OCC(O)COP(=O)(O)OCC2O[C@@H](n3cnc4c(N)ncnc43)[C@H](O)C2O)[C@@H](O)[C@H]1O (stereo partly specified) [AppppA analog, 6 (X=O)] |
| 76 | CC(COP(=O)(S)OCC1OC(n2cnc3c(N)ncnc32)C(O)C1O)COP(O)(=S)OCC1OC(n2cnc3c(N)ncnc32)C(O)C1O (stereo unspecified) [AppppA analog, 7 (X=S)] |
| 3 | Nc1ncnc2c1ncn2C1OC(COP(=O)(S)OCC(N)COP(O)(=S)OCC2OC(n3cnc4c(N)ncnc43)C(O)C2O)C(O)C1O (stereo unspecified) [AppppA analog, 8 (X=S)] |
| 0.23 | Nc1ncnc2c1ncn2C1OC(COP(=O)(S)OCCCOP(O)(=S)OCC2OC(n3cnc4c(N)ncnc43)C(O)C2O)C(O)C1O (stereo unspecified) [AppppA analog, 9 (X=S)] |
| 3.3 | Nc1ncnc2c1ncn2C1O[C@H](COP(=O)(S)NCCCNP(O)(=S)OCC2O[C@@H](n3cnc4c(N)ncnc43)[C@H](O)[C@@H]2O)[C@@H](O)[C@H]1O (stereo partly specified) [AppppA analog, 10 (X=S)] |
| 5.2 | Nc1ncnc2c1ncn2C1OC(COP(=O)(S)SCCCSP(O)(=S)OCC2OC(n3cnc4c(N)ncnc43)C(O)C2O)C(O)C1O (stereo unspecified) [AppppA analog, 11 (X=S)] |
| 1.5 | Nc1ncnc2c1ncn2C1OC(COP(=O)(O)OCC(COP(=O)(O)O)(COP(=O)(O)OCC2O[C@@H](n3cnc4c(N)ncnc43)[C@H](O)[C@@H]2O)COP(=O)(O)OC[C@H]2OC(n3cnc4c(N)ncnc43)[C@H](O)[C@@H]2O)[C@H](O)[C@@H]1O (stereo partly specified) [AppppA analog, 12 (X=O)] |
| 3.2 | Nc1ncnc2c1ncn2C1OC(COP(=O)(O)OCC(COP(=O)(O)OCC2O[C@@H](n3cnc4c(N)ncnc43)[C@H](O)[C@@H]2O)(COP(=O)(O)OCC2O[C@@H](n3cnc4c(N)ncnc43)[C@H](O)[C@@H]2O)COP(=O)(O)OC[C@H]2OC(n3cnc4c(N)ncnc43)[C@H](O)[C@@H]2O)[C@H](O)[C@@H]1O (stereo partly specified) [AppppA analog, 13 (X=O)] |
| 0.065 | Nc1ncnc2c1ncn2C1OC(COP(=O)(S)OCC(COP(=O)(S)OCC2OC(n3cnc4c(N)ncnc43)C(O)C2O)(COP(=O)(S)OCC2OC(n3cnc4c(N)ncnc43)C(O)C2O)COP(O)(=S)OCC2OC(n3cnc4c(N)ncnc43)C(O)C2O)C(O)C1O (stereo unspecified) [AppppA analog, 13 (X=S)] |
| 0.9 | Nc1ncnc2c1ncn2C1O[C@H](COP(=O)(O)OCC(COP(=O)(O)O)(COP(=O)(O)O)COP(=O)(O)OCC2O[C@@H](n3cnc4c(N)ncnc43)[C@H](O)[C@@H]2O)[C@@H](O)[C@H]1O (stereo partly specified) [AppppA analog, 14 (X=O)] |
| 0.7 | Nc1ncnc2c1ncn2C1OC(COP(=O)(S)OCC(COP(=O)(O)S)(COP(=O)(O)S)COP(O)(=S)OCC2OC(n3cnc4c(N)ncnc43)C(O)C2O)C(O)C1O (stereo unspecified) [AppppA analog, 14 (X=S)] |
| 1.5 | Nc1ncnc2c1ncn2C1O[C@H](COP(=O)(O)OCC(COP(=O)(O)OCC2O[C@@H](n3cnc4c(N)ncnc43)[C@H](O)[C@@H]2O)OP(=O)(O)OC[C@H]2OC(n3cnc4c(N)ncnc43)[C@H](O)[C@@H]2O)[C@@H](O)[C@H]1O (stereo partly specified) [AppppA analog, 15 (X=O)] |
| 0.078 | Nc1ncnc2c1ncn2C1OC(COP(=O)(S)OCC(COP(O)(=S)OCC2OC(n3cnc4c(N)ncnc43)C(O)C2O)OP(=O)(S)OCC2OC(n3cnc4c(N)ncnc43)C(O)C2O)C(O)C1O (stereo unspecified) [AppppA analog, 15 (X=S)] |
| 2.7 | Nc1ncnc2c1ncn2C1O[C@H](COP(=O)(S)NCC(CNP(O)(=S)OCC2O[C@@H](n3cnc4c(N)ncnc43)[C@H](O)[C@@H]2O)OP(=O)(S)OC[C@H]2OC(n3cnc4c(N)ncnc43)[C@H](O)[C@@H]2O)[C@@H](O)[C@H]1O (stereo partly specified) [AppppA analog, 16 (X=S)] |
| 0.42 | Nc1ncnc2c1ncn2C1O[C@H](COP(=O)(O)OCC(COP(=O)(O)OCC2O[C@@H](n3cnc4c(N)ncnc43)[C@H](O)[C@@H]2O)OP(=O)(O)O)[C@@H](O)[C@H]1O (stereo partly specified) [AppppA analog, 17 (X=O)] |
| 0.11 | Nc1ncnc2c1ncn2C1OC(COP(=O)(S)OCC(COP(O)(=S)OCC2OC(n3cnc4c(N)ncnc43)C(O)C2O)OP(=O)(O)S)C(O)C1O (stereo unspecified) [AppppA analog, 17 (X=S)] |
